Literature values, collected in patent US4292313A, “LRF Antagonists” (The Salk Institute for Biological Studies, priority 1980, dated 1981).
[ ]: non-standard residue; d: D form. pGlu = O=C1CC[C@@H](C(=O)O)N1

System: pituitary gland
Conditions: versus 6-Gly des-His2 analog

[pGlu]WSY[dA]LRPG-NH2
Potency as inhibitor of release of gonadotropins relative to the same peptide with Gly in the 6-position: 3 times
